Measurements taken from EP4685142A1, “TRIAZINE COMPOUND AND USE THEREOF” (Chengdu Zenitar Biomedical Technology Co., Ltd., priority 2023, dated 2024).
Like-named read-outs stand apart in the source and are kept apart here.

Columns and labels:
LPS-induced mice = assay: LPS-induced mouse model, survival; type: in vivo, Balb/c mice; conditions: for 72h Survival rate: 1 h before 10 mg/kg LPS i.p.
[1] = test system: IL-1β in human PBMC cells; assay: Inhibitory activity on IL-1β in human PBMC cells (LPS + Nigericin, ELISA); type: cell-based
Method: 2. Determination of inhibitory activity of compounds on IL-1β in human PBMC cells
Human peripheral blood mononuclear cells (PBMCs) were taken and cultured overnight in RPMI 1640 culture medium containing 10% FBS and antibiotics before stimulation. On the second day, the culture medium was replaced with a serum-reduced culture medium, the grown cells were stimulated for 3 h with LPS at a working concentration of 1 µg/mL, stimulated for 40 min with a drug, and then stimulated for 40 min with Nigericin at a concentration of 10 µM, the cell supernatant was harvested, and the yield of IL-1β was detected by ELISA.
The experimental results are shown in Table 3: Table 3 Inhibitory effect of compounds on IL-1β in PBMC cells

[2] = molecular target: T1, hERG potassium ion channel (Homo sapiens, UniProt Q12809)
Method: (§1) Inhibition experiment of compounds on hERG potassium ion channel
(§2) Cell culture and treatment: CHO cells stably expressing hERG were cultured in cell culture flasks and incubated in a 5% CO2 incubator at 37°C. When a cell density reached 60%-80%, the cell culture medium was aspirated, washed once with PBS, and then digested with Detachin. After digestion, the grown cells were neutralized in the cell culture medium, and then centrifuged, the supernatant was aspirated, the cell culture medium was added again to resuspend the grown cells, and the cell density was adjusted to 2-5×10^6 cells/mL for later use.
(§3) Compound preparation: the compound stock solution was diluted in 100% DMSO, that is, 10 µL compound stock solution was serially diluted in 20 µL DMSO by 3 folds to obtain six concentrations. Six concentrations of the compound (4 µL for each concentration) were diluted in 396 µL extracellular fluid by 100 folds to obtain six intermediate concentrations. Six intermediate concentrations of the compound (80 µL for each concentration) were diluted in 320 µL extracellular fluid by 5 folds to obtain final concentrations to be tested. […] DMSO in a final test concentration was not more than 0.2%, and DMSO at this concentration had no effect on the hERG potassium channel. The entire dilution process for compound preparation was performed using Bravo instrument.
(§4) Electrophysiological recording process: the processes of single-celled high-impedance sealing and whole-cell mode formation were all automatically completed by Qpatch instrument, under the whole-cell recording mode, the cells were clamped at -80 mV, before 5-second + 40 mV depolarization stimulus, the cells were given 50-millisecond - 50 mV pre-voltage, followed by repolarization to -50 mV for 5 seconds, and then returning to -80 mV. The voltage stimulus was given every 15 seconds, after 2 minutes of recording, extracellular fluid was recorded for 5 min, and then a drug was administrated, started from a lowest test concentration, each test concentration of the compound was given for 2.5 minutes, after all concentrations were given consecutively, a positive control compound Cisapride (3 µM) was given. At least 3 cells were tested for each concentration (n≥3).
(§5) Data processing: data analysis and processing were performed using GraphPad Prism 5.0 and Excel software. IC50 values of the compounds were calculated by fitting with the following equation using GraphPad Prism 5 software: Y = Bottom + (Top−Bottom)/(1+10^(∧)((LogIC50−X)*HillSlope)); [formula] where X is the Log value of the test sample concentration, Y is an inhibition percentage at a corresponding concentration, and Bottom and Top are the minimum and maximum inhibition percentages, respectively.

[3] = Pharmacokinetic evaluation in Balb/c mice; type: in vivo
Source text: 4. Pharmacokinetic evaluation of compounds in Balb/c mice
Experimental purpose: to understand pharmacokinetic properties of the compounds.
Experimental basis: Technical Guidelines for Nonclinical Pharmacokinetic Studies of Chemical Drugs, 2014.
Experimental protocol: the pharmacokinetic properties of the compounds were investigated via intravenous administration and intragastric administration in Balb/c mice.
The blood drug concentration was quantitatively analyzed by LC-MS/MS, and pharmacokinetic parameters were calculated, such as peak concentration (Cmax), area under the concentration-time curve (AUC(0-t)), half-life (T1/2), clearance (CL), volume of distribution at steady state (Vdss), and bioavailability (F).
The results of pharmacokinetic evaluation are shown in Table 5 below: Table 5 Pharmacokinetic test results of compounds in Balb/c mice

[4] = molecular target: T1, hERG potassium ion channel; assay: Inhibition of hERG potassium ion channel (CHO cells stably expressing hERG, Qpatch)
Method: as §1, §2, §3, §4, §5

[5] = In vivo brain-to-plasma ratio in mice; conditions: for Brain / Plasma: male mice, oral 10 mg/kg
Method: Evaluation of in vivo brain-to-plasma ratio of compound
Experimental purpose: to obtain the brain-to-plasma ratio of the compound
Experimental protocol: the brain-to-plasma ratio of the compound was investigated by monitoring the content of the compound in mouse brain and plasma.
Experimental procedure: the compound was weighed, followed by adding a small amount of DMSO and adding a sodium chloride solution for injection, to prepare a 10 mg · mL^-1 compound solution for administration. Male mice were orally administered at 10 mg · kg^-1, and whole plasma and whole brain tissue were sampled at 1 h and 6 h after administration (n=3). […] A centrifuge tube was weighed as M1, the centrifuge tube containing the whole brain tissue was weighed as M2, the centrifuge tube containing water for homogenization was weighed as M3, and the centrifuge tube after the removal of 30 µL homogenate was weighed as M4.
Standard curve range: 10-10,000 ng·mL^-1. Content of drug in brain = measured value × 0.03 × (M3−M1)/[(M2−M1)×(M3−M4)].

NLRP3 inflammasome = molecular target: T2, NLRP3 inflammasome (Homo sapiens, UniProt Q96P20); assay: Inhibitory activity of NLRP3 inflammasome in human monocytes (THP-1 cells, LPS + Nigericin, IL-1β ELISA); type: cell-based
T2 construct: host or cells: THP-1 cells
Method in brief: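 THP-1 cells differentiated overnight with 10 µM PMA at 37°C and 5% CO2, then primed 3 h with 1 µg/mL LPS in Opti-MEM. Compound applied for 40 min, followed by 40 min with 10 µM nigericin. IL-1β in supernatant measured by ELISA.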

[6] = In vivo distribution of cerebrospinal fluid and plasma; conditions: intravenous 5 mg/kg, n=1
Method: Evaluation of in vivo distribution of cerebrospinal fluid and plasma after compound administration
Experimental procedure: the compound was weighed, followed by adding a small amount of DMSO and then adding a sodium chloride solution for injection, to prepare a 5 mg·mL^-1 compound solution for administration. […] Standard curve range: 1-1000 ng·mL^-1.

[7] = human PBMC, LPS 1 µg/mL 3 h, drug 40 min, Nigericin 10 µM 40 min, IL-1β ELISA, read-out: IC50
[8] = 50 mg/kg, First cage (6 mice for Compound 3, 5 mice for Compound 4)
[9] = 50 mg/kg, Second cage (6 mice for Compound 3, 5 mice for Compound 4)
[10] = male, Balb/c, mouse, in vivo, po, 5 mg/kg
[11] = male, mouse, brain/plasma, po, 10 mg/kg
[12] = male, mouse, plasma, po, 10 mg/kg
[13] = mouse, in vivo, 5 mg/kg, PO, Balb/c mice, read-out: AUC(0-t)
[14] = mouse, in vivo, 5 mg/kg, PO, Balb/c mice, read-out: Cmax
[15] = mouse, in vivo, 5 mg/kg, PO, Balb/c mice, read-out: T1/2 (converted)

T1 sequence (Q12809 whole entry): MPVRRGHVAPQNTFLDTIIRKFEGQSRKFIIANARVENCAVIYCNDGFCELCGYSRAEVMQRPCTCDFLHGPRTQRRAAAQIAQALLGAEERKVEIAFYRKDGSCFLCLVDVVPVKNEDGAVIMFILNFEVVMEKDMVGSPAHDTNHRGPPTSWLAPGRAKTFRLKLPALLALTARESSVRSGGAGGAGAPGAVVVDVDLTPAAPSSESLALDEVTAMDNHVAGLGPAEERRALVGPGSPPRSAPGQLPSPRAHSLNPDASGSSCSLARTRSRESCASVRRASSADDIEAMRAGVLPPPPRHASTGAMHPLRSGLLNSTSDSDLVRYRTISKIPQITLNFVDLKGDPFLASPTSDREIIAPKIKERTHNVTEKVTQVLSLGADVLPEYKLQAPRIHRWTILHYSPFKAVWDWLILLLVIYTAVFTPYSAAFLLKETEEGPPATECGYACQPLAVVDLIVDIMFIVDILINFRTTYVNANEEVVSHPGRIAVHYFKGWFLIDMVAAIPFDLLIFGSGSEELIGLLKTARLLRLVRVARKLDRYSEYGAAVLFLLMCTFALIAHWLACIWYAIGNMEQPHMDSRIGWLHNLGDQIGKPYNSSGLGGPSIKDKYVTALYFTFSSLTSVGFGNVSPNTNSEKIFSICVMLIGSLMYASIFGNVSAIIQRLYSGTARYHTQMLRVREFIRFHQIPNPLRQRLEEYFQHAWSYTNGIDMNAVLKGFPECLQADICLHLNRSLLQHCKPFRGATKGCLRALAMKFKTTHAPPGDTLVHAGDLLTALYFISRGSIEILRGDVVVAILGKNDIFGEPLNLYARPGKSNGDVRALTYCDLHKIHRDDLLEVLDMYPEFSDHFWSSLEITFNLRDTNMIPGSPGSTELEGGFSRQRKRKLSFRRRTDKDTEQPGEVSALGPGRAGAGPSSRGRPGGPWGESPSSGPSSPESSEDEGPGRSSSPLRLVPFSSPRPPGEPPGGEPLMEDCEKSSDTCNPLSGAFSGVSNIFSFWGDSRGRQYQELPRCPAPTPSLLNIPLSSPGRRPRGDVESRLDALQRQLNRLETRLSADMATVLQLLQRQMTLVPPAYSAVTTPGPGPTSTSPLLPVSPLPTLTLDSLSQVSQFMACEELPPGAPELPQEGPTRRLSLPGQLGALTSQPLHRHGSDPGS
T2 sequence (Q96P20 whole entry): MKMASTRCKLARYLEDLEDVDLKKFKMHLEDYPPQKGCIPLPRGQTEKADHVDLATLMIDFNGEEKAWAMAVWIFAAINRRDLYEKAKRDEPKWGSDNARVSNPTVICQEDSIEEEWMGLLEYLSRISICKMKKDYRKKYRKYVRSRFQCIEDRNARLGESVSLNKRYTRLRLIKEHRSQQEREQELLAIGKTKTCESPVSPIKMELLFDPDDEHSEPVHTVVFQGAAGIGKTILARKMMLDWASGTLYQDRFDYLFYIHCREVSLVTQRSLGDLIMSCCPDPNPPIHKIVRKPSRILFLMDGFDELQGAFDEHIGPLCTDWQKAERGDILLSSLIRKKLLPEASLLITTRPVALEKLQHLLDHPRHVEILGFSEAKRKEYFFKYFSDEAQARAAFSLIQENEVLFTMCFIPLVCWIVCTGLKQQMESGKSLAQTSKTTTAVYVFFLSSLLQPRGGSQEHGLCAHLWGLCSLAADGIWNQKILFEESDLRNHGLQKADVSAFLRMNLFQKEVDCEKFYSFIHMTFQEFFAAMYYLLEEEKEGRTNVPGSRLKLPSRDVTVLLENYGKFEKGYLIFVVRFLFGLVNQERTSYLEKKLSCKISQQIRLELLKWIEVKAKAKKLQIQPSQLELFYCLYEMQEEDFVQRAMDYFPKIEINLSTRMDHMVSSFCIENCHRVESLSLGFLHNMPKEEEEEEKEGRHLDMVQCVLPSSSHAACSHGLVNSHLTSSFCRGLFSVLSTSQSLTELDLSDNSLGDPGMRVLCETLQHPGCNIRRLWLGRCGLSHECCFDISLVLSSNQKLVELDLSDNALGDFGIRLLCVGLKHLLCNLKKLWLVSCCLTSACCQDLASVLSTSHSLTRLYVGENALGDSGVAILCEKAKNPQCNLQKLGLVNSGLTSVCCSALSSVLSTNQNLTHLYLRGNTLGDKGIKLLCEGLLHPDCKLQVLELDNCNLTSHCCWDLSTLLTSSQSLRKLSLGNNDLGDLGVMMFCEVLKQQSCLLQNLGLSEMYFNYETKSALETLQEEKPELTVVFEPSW

Structure (SMILES): CC(C)(O)c1coc(S(=O)(=O)NC(=O)Nc2c3c(cc4c2CCC4)CCC3)c1 [MCC950, reference compound]
- 72h Survival rate (LPS-induced mice; 25 mg/kg oral): 60%
- survival status of mice (mice alive) 12h (LPS-induced mice; 25 mg/kg, First cage (5 mice)): 5
- survival status of mice (mice alive) 24h (LPS-induced mice; 25 mg/kg, First cage (5 mice)): 5
- survival status of mice (mice alive) 36h (LPS-induced mice; 25 mg/kg, First cage (5 mice)): 4
- survival status of mice (mice alive) 48h (LPS-induced mice; 25 mg/kg, First cage (5 mice)): 4
- survival status of mice (mice alive) 72h (LPS-induced mice; 25 mg/kg, First cage (5 mice)): 4
- survival status of mice (mice alive) 12h (LPS-induced mice; 25 mg/kg, Second cage (5 mice)): 5
- survival status of mice (mice alive) 24h (LPS-induced mice; 25 mg/kg, Second cage (5 mice)): 4
- survival status of mice (mice alive) 36h (LPS-induced mice; 25 mg/kg, Second cage (5 mice)): 4
- survival status of mice (mice alive) 48h (LPS-induced mice; 25 mg/kg, Second cage (5 mice)): 2
- survival status of mice (mice alive) 72h (LPS-induced mice; 25 mg/kg, Second cage (5 mice)): 2
- IC50 [1, 7]: 7.81 nM

Structure (SMILES): CN1CCC[C@@H](Nc2nnc(-c3ccc4sccc4c3O)n(C)c2=O)C1 [Compound 4, (R)-3-(4-hydroxybenzo[b]thiophen-5-yl)-4-methyl-6-((1-methylpiperidin-3-yl)amino)-1,2,4-tr iazin-5(4H)-ketone]
- 72h Survival rate (LPS-induced mice; 25 mg/kg oral): 80%
- survival status of mice (mice alive) 12h (LPS-induced mice; 25 mg/kg, First cage (5 mice)): 5
- survival status of mice (mice alive) 24h (LPS-induced mice; 25 mg/kg, First cage (5 mice)): 5
- survival status of mice (mice alive) 36h (LPS-induced mice; 25 mg/kg, First cage (5 mice)): 5
- survival status of mice (mice alive) 48h (LPS-induced mice; 25 mg/kg, First cage (5 mice)): 5
- survival status of mice (mice alive) 72h (LPS-induced mice; 25 mg/kg, First cage (5 mice)): 5
- survival status of mice (mice alive) 12h (LPS-induced mice; 25 mg/kg, Second cage (5 mice)): 5
- survival status of mice (mice alive) 24h (LPS-induced mice; 25 mg/kg, Second cage (5 mice)): 5
- survival status of mice (mice alive) 36h (LPS-induced mice; 25 mg/kg, Second cage (5 mice)): 4
- survival status of mice (mice alive) 48h (LPS-induced mice; 25 mg/kg, Second cage (5 mice)): 4
- survival status of mice (mice alive) 72h (LPS-induced mice; 25 mg/kg, Second cage (5 mice)): 3
- 72h Survival rate (LPS-induced mice; 50 mg/kg oral): 100%
- survival status of mice (mice alive) 12h (LPS-induced mice; [8]): 5
- survival status of mice (mice alive) 24h (LPS-induced mice; [8]): 5
- survival status of mice (mice alive) 36h (LPS-induced mice; [8]): 5
- survival status of mice (mice alive) 48h (LPS-induced mice; [8]): 5
- survival status of mice (mice alive) 72h (LPS-induced mice; [8]): 5
- survival status of mice (mice alive) 12h (LPS-induced mice; [9]): 5
- survival status of mice (mice alive) 24h (LPS-induced mice; [9]): 5
- survival status of mice (mice alive) 36h (LPS-induced mice; [9]): 5
- survival status of mice (mice alive) 48h (LPS-induced mice; [9]): 5
- survival status of mice (mice alive) 72h (LPS-induced mice; [9]): 5
- inhibitory effects on the hERG potassium ion channel (conclusion in words) ([2]; human): Conclusion: compounds 3, 4, 5, 9, 16, 17, 24, 30, 40, 41, 42, 43, 54 and others have weak inhibitory effects on the hERG potassium ion channel, having weaker inhibitory effect than the reference compound Ref-1.
- AUC(0-t) [3, 10]: 16900 ng·h/mL
- Cmax [3, 10]: 4610 ng/mL
- half-life [3, 10]: 3 h
- 20 uM Inhibition ratio [4]: 14.87%
- Brain ([5]; 1 h): 1780 ng/g
- Brain ([5]; 6 h): 335 ng/g
- Kp at 1 h [5, 11]: 0.53
- Kp at 6 h [5, 11]: 0.25
- concentration at 1 h [5, 12]: 3340 ng/mL
- concentration at 6 h [5, 12]: 1370 ng/mL
- IC50 [1, 7]: 1.42 nM
- IC50 (NLRP3 inflammasome; THP-1 cells, PMA, LPS 1 µg/mL 3 h, drug 40 min, Nigericin 10 µM 40 min, IL-1β ELISA, read-out: IC50): 4.21 nM

Structure (SMILES): CCN1CCC[C@@H](Nc2nnc(-c3ccc4sccc4c3O)n(C)c2=O)C1 [Compound 3, (R)-6-((1-ethylpiperidin-3-yl)amino)-3-(4-hydroxybenzo[b]thiophen-5-yl)-4-methyl-1,2,4-tria zin-5(4H)-ketone]
- 72h Survival rate (LPS-induced mice; 25 mg/kg oral): 90%
- survival status of mice (mice alive) 12h (LPS-induced mice; 25 mg/kg, First cage (5 mice)): 5
- survival status of mice (mice alive) 24h (LPS-induced mice; 25 mg/kg, First cage (5 mice)): 5
- survival status of mice (mice alive) 36h (LPS-induced mice; 25 mg/kg, First cage (5 mice)): 5
- survival status of mice (mice alive) 48h (LPS-induced mice; 25 mg/kg, First cage (5 mice)): 4
- survival status of mice (mice alive) 72h (LPS-induced mice; 25 mg/kg, First cage (5 mice)): 4
- survival status of mice (mice alive) 12h (LPS-induced mice; 25 mg/kg, Second cage (5 mice)): 5
- survival status of mice (mice alive) 24h (LPS-induced mice; 25 mg/kg, Second cage (5 mice)): 5
- survival status of mice (mice alive) 36h (LPS-induced mice; 25 mg/kg, Second cage (5 mice)): 5
- survival status of mice (mice alive) 48h (LPS-induced mice; 25 mg/kg, Second cage (5 mice)): 5
- survival status of mice (mice alive) 72h (LPS-induced mice; 25 mg/kg, Second cage (5 mice)): 5
- 72h Survival rate (LPS-induced mice; 50 mg/kg oral): 92%
- survival status of mice (mice alive) 12h (LPS-induced mice; [8]): 6
- survival status of mice (mice alive) 24h (LPS-induced mice; [8]): 6
- survival status of mice (mice alive) 36h (LPS-induced mice; [8]): 6
- survival status of mice (mice alive) 48h (LPS-induced mice; [8]): 6
- survival status of mice (mice alive) 72h (LPS-induced mice; [8]): 6
- survival status of mice (mice alive) 12h (LPS-induced mice; [9]): 6
- survival status of mice (mice alive) 24h (LPS-induced mice; [9]): 6
- survival status of mice (mice alive) 36h (LPS-induced mice; [9]): 5
- survival status of mice (mice alive) 48h (LPS-induced mice; [9]): 5
- survival status of mice (mice alive) 72h (LPS-induced mice; [9]): 5
- inhibitory effects on the hERG potassium ion channel (conclusion in words) [2]: Conclusion: compounds 3, 4, 5, 9, 16, 17, 24, 30, 40, 41, 42, 43, 54 and others have weak inhibitory effects on the hERG potassium ion channel, having weaker inhibitory effect than the reference compound Ref-1.
- F ([3]; 5 mg/kg PO vs 5 mg/kg IV, Balb/c mice): 81.05%
- clearance ([3]; mouse, in vivo, 5 mg/kg, IV, Balb/c mice): 9.67 mL/min/kg
- AUC(0-t) ([3]; mouse, in vivo, 5 mg/kg, IV, Balb/c mice, read-out: AUC(0-t)): 8300 ng·h/mL
- Cmax ([3]; mouse, in vivo, 5 mg/kg, IV, Balb/c mice, read-out: Cmax): 1990 ng/mL
- half-life ([3]; mouse, in vivo, 5 mg/kg, IV, Balb/c mice, read-out: T1/2 (converted)): 5.4 h
- Vd ([3]; mouse, in vivo, 5 mg/kg, IV, Balb/c mice, read-out: Vdss): 4.51 L/kg
- AUC(0-t) [3, 13]: 6730 ng·h/mL
- Cmax [3, 14]: 1010 ng/mL
- half-life [3, 15]: 4.9 h
- Cerebrospinal fluid ([6]; 0.25h): 79 ng/g
- Plasma ([6]; 0.25h): 781 ng/mL
- Cerebrospinal fluid ([6]; 2h): 15 ng/g
- Plasma ([6]; 2h): 185 ng/mL
- 20 uM Inhibition ratio [4]: 38.23%
- Brain ([5]; 1 h): 761 ng/g
- Plasma ([5]; 1 h): 2082 ng/mL
- Brain ([5]; 6 h): 104 ng/g
- Plasma ([5]; 6 h): 312 ng/mL
- Kp at 1 h ([5]; mouse, brain, po, 10 mg/kg): 0.36
- Kp at 6 h ([5]; mouse, brain, po, 10 mg/kg): 0.33
- IC50 ([1]; Homo sapiens, PBMC): 1.23 nM
- IC50 (NLRP3 inflammasome): 2.11 nM

Structure (SMILES): CCn1c(-c2ccc3sccc3c2O)nnc(N[C@@H]2CCCN(C)C2)c1=O [Compound 17, (R)-4-ethyl-3-(4-hydroxybenzo[b]thiophen-5-yl)-6-[(1-methylpiperidin-3-yl)amino]-1,2,4-tria zin-5(4H)-ketone]
- inhibitory effects on the hERG potassium ion channel (conclusion in words) [2]: Conclusion: compounds 3, 4, 5, 9, 16, 17, 24, 30, 40, 41, 42, 43, 54 and others have weak inhibitory effects on the hERG potassium ion channel, having weaker inhibitory effect than the reference compound Ref-1.
- AUC(0-t) [3, 13]: 17800 ng·h/mL
- Cmax [3, 14]: 1850 ng/mL
- half-life [3, 15]: 4.2 h
- Cerebrospinal fluid ([6]; 0.25h): 47 ng/g
- Plasma ([6]; 0.25h): 713 ng/mL
- Cerebrospinal fluid ([6]; 2h): 25 ng/g
- Plasma ([6]; 2h): 590 ng/mL
- 20 uM Inhibition ratio [4]: 22.83%
- Brain ([5]; 1 h): 745 ng/g
- Plasma ([5]; 1 h): 5243 ng/mL
- Brain ([5]; 6 h): 290 ng/g
- Plasma ([5]; 6 h): 1872 ng/mL
- Kp at 1 h ([5]; mouse, brain, po, 10 mg/kg): 0.14
- Kp at 6 h ([5]; mouse, brain, po, 10 mg/kg): 0.16
- IC50 (NLRP3 inflammasome): 3.19 nM
